The values below come from ChEMBL document CHEMBL1142342, “Lignans from the fruits of Forsythia suspensa” (Bioorg Med Chem Lett, 2008).

Active and inactive are the calls of the source. The calls are words filed in the database; no cut-off is given here.

Data set [1] has as its system LLC-PK1. As to the kind of experiment: Cytotoxicity against pig LLC-PK1 cells. Type of data set: cell-based, Sus scrofa.
The subject of data set [2] is LLC-PK1. Description: Inhibition of 3-morpholinosydnonimine-induced LDH release in pig LLC-PK1 cells after 24 hrs. It counts as functional, cell-based. Conditions: Sus scrofa.
Data set [3] deals with LLC-PK1. Description: Protective effect against 3-morpholinosydnonimine-induced cell death in pig LLC-PK1 cells after 1 hr by MTT assay. It counts as functional, cell-based. Conditions: Sus scrofa.
Data set [4] relates to LLC-PK1. As to the kind of experiment: Protective effect against 3-morpholinosydnonimine-induced cell death in pig LLC-PK1 cells assessed as viability at 50 uM after 1 hr by MTT assay. It counts as functional. Conditions: Sus scrofa, LLC-PK1, 1 h; read-out: Activity.
Data set [5] relates to LLC-PK1. As to the kind of experiment: Inhibition of 3-morpholinosydnonimine-induced LDH release in pig LLC-PK1 cells at 50 uM after 24 hrs. It counts as functional, cell-based. Conditions: Sus scrofa.
For data set [6], the system named is LLC-PK1. Description: Inhibition of 3-morpholinosdynonimine-induced LDH release in pig LLC-PK1 cells at 10 uM after 24 hrs. Type of data set: functional, cell-based. Conditions: Sus scrofa.

Turning to `COc1cc(O)cc([C@H]2OC[C@H](C(=O)c3ccc(OC)c(OC)c3)[C@@H]2CO)c1` [FORSYTHIALAN B], the Activity entry is “Non-toxic” in the data set on LLC-PK1 [1] and “Dose-dependent effect” with LLC-PK1 [3]. In addition, the outcome in the data set with LLC-PK1 [2] was Active. The viability at 50 µM in the data set on LLC-PK1 [4] came to 85%.

As to `COc1cc(O)cc([C@H]2OC[C@H](C(=O)c3ccc(O)c(OC)c3)[C@@H]2CO)c1` [FORSYTHIALAN A], the result in the data set on LLC-PK1 [5] and in the data set with LLC-PK1 [6] was Active. The Activity entry in the data set on LLC-PK1 [1] is “Non-toxic”; with LLC-PK1 [3], “Dose-dependent effect”. The viability at 50 µM in the data set on LLC-PK1 [4] was 95%.
